Entries after “also recorded” stand apart in the source; their conditions may differ. Like-named read-outs stand apart in the source and are kept apart here.
Tests used:
[1] = In vivo biodistribution in normal mice; parameters: species or system KunMing normal mice; details: iv injection
Experimental: In vivo biodistribution studies were performed in KunMing normal mice (female, average weight 18–22 g) and in accordance with the national laws related to the care and experiments on laboratory animal. A saline solution (100 µL) containing [^125I]8 or [^125I]17 (1 µCi) was injected directly into the tail vein of mice. The mice (n = 5 for each time point) were sacriﬁced at designated time points post-injection. The organs of interest were removed and weighed, and the radioactivity was counted with an automatic γ-counter (WALLAC Wizard 1470).

[2] = Partition coefficient determination (n-octanol/PBS); format: physicochemical; details: n-octanol / PBS 0.02 M, pH 7.4
Experimental: The determination of partition coefﬁcients of [^125I]8 and [^125I]17 was performed according to the procedure previously reported with some modifications. Ligand [^125I]8 or [^125I]17 (~5 μCi) was mixed with 3 mL each of n-octanol and PBS (0.02 M, pH 7.4) in a test tube. The test tube was vortexed for 5 min at room temperature, followed by centrifugation for 10 min at 3,000 rpm. Two weighed samples from the n-octanol (50 µL) and buffer layers (400 µL) were counted in a γ-counter. The partition coefﬁcient was expressed as the logarithm of the ratio of the counts per gram from n-octanol versus that of PBS. Samples from the n-octanol layer were repartitioned until consistent partition coefﬁcient values were obtained. The measurements were done in triplicate and repeated three times.

Aβ1–40 aggregates = biological target: T1, Aβ1–40 aggregates (Homo sapiens, UniProt P05067); assay: Competition binding assay on Aβ1–40 aggregates using [125I]TZDM as radio-ligand; details: Aβ1–40 aggregates against [125I]TZDM; triplicate, mean ± SD
T1 construct: β-amyloid(1–40) were purchased from AnaSpec; purchased AnaSpec (San Jose, CA, USA)
T1 sequence (P05067 672-711 limits assumed): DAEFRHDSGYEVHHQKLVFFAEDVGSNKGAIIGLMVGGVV
Experimental: The lyophilized white powder of β-amyloid(1–40) were purchased from AnaSpec (San Jose, CA, USA). After reconstituted by adding basic buffer (1% NH4OH. 60–70 μL) to β-amyloid (1–40) (1 mg) aggregation of Aβ1–40 was carried out by gently dissolving Aβ1–40 (0.25 mg/mL) in a PBS buffer (pH 7.4). The solution was incubated at 37 °C for 72 h with gentle and constant shaking. Binding studies were carried out according to the procedure described previously with some modifications using [^125I]TZDM as the radiolabeled standard. […] The mixture was incubated at 37 °C for 2 h. […] Filters containing the bound ^125I ligand were counted in a γ-counter (WALLAC Wizard 1470, PerkinElmer Life Sciences, Waltham, MA, USA) with 75% counting efﬁciency. The IC50 values were determined using GraphPad Prism 5.0, and those for the inhibition constant (Ki) were calculated using the Cheng Prusoff equation: Ki = IC50/(1 + [L]/Kd).

[3] = parameters: method as in PMID 12519062; details: normal mice, cited from earlier work
Aβ plaques = Aβ plaques (Homo sapiens, UniProt P05067); assay: In vitro fluorescent staining of amyloid plaques in brain sections from transgenic mouse; format: binding, transgenic model mouse (APP/PS1); details: brain sections 8 µm, APP/PS1, 12 months, male; 1 µM
Chain of Aβ plaques (P05067 672-711 limits assumed): as above
Experimental: Parafﬁn-embedded brain sections of transgenic model mouse (8 µm, APP/PS1, 12 months, male) were used for the in vitro fluorescent staining of amyloid plaques. The brain sections were deparafﬁnized with xylene, ethanol and distilled water. After immersion in PBS (0.02 M, pH 7.4) for 30 min, the brain sections were incubated with 20% ethanol solution (1 µM) of compound 8 for 10 min. The localization of plaques was confirmed by staining with thioﬂavin-S on the adjacent sections. Finally, the sections were washed with 40% ethanol and PBS (0.02 M, pH 7.4). Fluorescent observation was performed by a Stereo Discovery V12 instrument (Zeiss, Oberkochen, Germany) equipped with a LP 505 filter set (excitation, 405 nm).

For [125I]c1ccc(/C=C/c2ccc3ncccc3c2)cc1 [[^125I]17], the “Biodistribution Blood” value ([1]; 2 min) was 11.39 ± 1.56 % ID/g, the “Biodistribution Brain” value ([1]; 2 min) was 2.05 ± 0.25 % ID/g and the “Biodistribution Heart” value ([1]; 2 min) was 7.70 ± 0.86 % ID/g. For the same molecule, the “Biodistribution Kidney” value ([1]; 2 min) was 15.01 ± 1.56 % ID/g, the “Biodistribution Liver” value ([1]; 2 min) was 22.45 ± 1.79 % ID/g and the “Biodistribution Lung” value ([1]; 2 min) was 13.56 ± 1.71 % ID/g. For the same molecule, the “Biodistribution Muscle” value ([1]; 2 min) was 2.78 ± 0.42 % ID/g, the “Biodistribution Spleen” value ([1]; 2 min) was 5.88 ± 0.30 % ID/g and the “Biodistribution Stomach” value ([1]; 2 min) was 4.05 ± 0.09 % ID/organ. For the same molecule, the “Biodistribution Blood” value ([1]; 15 min) was 6.31 ± 0.51 % ID/g, the “Biodistribution Brain” value ([1]; 15 min) was 1.18 ± 0.17 % ID/g and the “Biodistribution Heart” value ([1]; 15 min) was 3.80 ± 0.12 % ID/g. The “Biodistribution Kidney” value ([1]; 15 min) was 7.47 ± 1.01 % ID/g, the “Biodistribution Liver” value ([1]; 15 min) was 9.95 ± 0.18 % ID/g and the “Biodistribution Lung” value ([1]; 15 min) was 6.42 ± 0.47 % ID/g. For the same molecule, the “Biodistribution Muscle” value ([1]; 15 min) was 1.68 ± 0.20 % ID/g, the “Biodistribution Spleen” value ([1]; 15 min) was 5.91 ± 0.58 % ID/g and the “Biodistribution Stomach” value ([1]; 15 min) was 15.84 ± 0.78 % ID/organ. The “Biodistribution Blood” value ([1]; 30 min) was 5.80 ± 0.37 % ID/g, the “Biodistribution Brain” value ([1]; 30 min) was 0.93 ± 0.13 % ID/g and the “Biodistribution Heart” value ([1]; 30 min) was 3.21 ± 0.11 % ID/g. The “Biodistribution Kidney” value ([1]; 30 min) was 6.57 ± 0.50 % ID/g, the “Biodistribution Liver” value ([1]; 30 min) was 9.12 ± 0.53 % ID/g and the “Biodistribution Lung” value ([1]; 30 min) was 5.64 ± 0.41 % ID/g. The “Biodistribution Muscle” value ([1]; 30 min) was 2.30 ± 0.32 % ID/g, the “Biodistribution Spleen” value ([1]; 30 min) was 4.66 ± 0.52 % ID/g and the “Biodistribution Stomach” value ([1]; 30 min) was 8.11 ± 1.21 % ID/organ. For the same molecule, the “Biodistribution Blood” value ([1]; 60 min) was 3.86 ± 0.74 % ID/g, the “Biodistribution Brain” value ([1]; 60 min) was 0.55 ± 0.11 % ID/g and the “Biodistribution Heart” value ([1]; 60 min) was 2.55 ± 0.21 % ID/g. For the same molecule, the “Biodistribution Kidney” value ([1]; 60 min) was 4.72 ± 0.69 % ID/g, the “Biodistribution Liver” value ([1]; 60 min) was 6.97 ± 0.28 % ID/g and the “Biodistribution Lung” value ([1]; 60 min) was 4.55 ± 0.49 % ID/g. The “Biodistribution Muscle” value ([1]; 60 min) was 1.40 ± 0.34 % ID/g, the “Biodistribution Spleen” value ([1]; 60 min) was 4.71 ± 0.97 % ID/g and the “Biodistribution Stomach” value ([1]; 60 min) was 6.75 ± 0.43 % ID/organ. For the same molecule, the “Biodistribution Blood” value ([1]; 120 min) was 1.97 ± 0.35 % ID/g, the “Biodistribution Brain” value ([1]; 120 min) was 0.26 ± 0.03 % ID/g and the “Biodistribution Heart” value ([1]; 120 min) was 1.33 ± 0.06 % ID/g. For the same molecule, the “Biodistribution Kidney” value ([1]; 120 min) was 2.20 ± 0.34 % ID/g, the “Biodistribution Liver” value ([1]; 120 min) was 3.93 ± 0.46 % ID/g and the “Biodistribution Lung” value ([1]; 120 min) was 2.01 ± 0.18 % ID/g. For the same molecule, the “Biodistribution Muscle” value ([1]; 120 min) was 0.72 ± 0.21 % ID/g, the “Biodistribution Spleen” value ([1]; 120 min) was 2.25 ± 0.36 % ID/g and the “Biodistribution Stomach” value ([1]; 120 min) was 11.12 ± 2.48 % ID/organ. For the same molecule, the “Biodistribution Blood” value ([1]; 240 min) was 1.38 ± 0.24 % ID/g, the “Biodistribution Brain” value ([1]; 240 min) was 0.14 ± 0.02 % ID/g and the “Biodistribution Heart” value ([1]; 240 min) was 0.80 ± 0.19 % ID/g. The “Biodistribution Kidney” value ([1]; 240 min) was 1.64 ± 0.23 % ID/g, the “Biodistribution Liver” value ([1]; 240 min) was 2.96 ± 0.28 % ID/g and the “Biodistribution Lung” value ([1]; 240 min) was 1.43 ± 0.28 % ID/g. The “Biodistribution Muscle” value ([1]; 240 min) was 0.61 ± 0.08 % ID/g, the “Biodistribution Spleen” value ([1]; 240 min) was 1.59 ± 0.17 % ID/g and the “Biodistribution Stomach” value ([1]; 240 min) was 7.03 ± 1.51 % ID/organ. It also gave a logD [2] of 2.73.

In the case of Fc1ccc(/C=C/c2ccc3[nH]ccc3c2)cc1 [Compound 5, (E)-5-(4-Fluorostyryl)-1H-indole], the Ki (Aβ1–40 aggregates) is reported as 89.3 ± 2.6 nM.

Molecule Brc1ccc(/C=C/c2ccc3[nH]ccc3c2)cc1 [Compound 7, (E)-5-(4-Bromostyryl)-1H-indole] has a melting point of 215 to 216 °C and a Ki (Aβ1–40 aggregates) of 16.3 ± 1.7 nM.

In the case of Ic1ccc(/C=C/c2ccc3ncccc3c2)cc1 [Compound 17, (E)-6-(4-Iodostyryl)quinoline], the melting point is reported as 173 to 174 °C and the Ki (Aβ1–40 aggregates) is reported as 8.6 ± 1.2 nM.

Fc1ccc(/C=C/c2ccc3ncccc3c2)cc1 [Compound 14, (E)-6-(4-Fluorostyryl)quinoline] gave a Ki (Aβ1–40 aggregates) of 270.4 ± 1.5 nM.

Work on COc1ccc(/C=C/c2ccc3[nH]ccc3c2)cc1 [Compound 10, (E)-5-(4-Methoxystyryl)-1H-indole] yielded a Ki (Aβ1–40 aggregates) of 32.4 ± 1.9 nM.

With Clc1ccc(/C=C/c2ccc3[nH]ccc3c2)cc1 [Compound 6, (E)-5-(4-Chlorostyryl)-1H-indole] the Ki (Aβ1–40 aggregates) was 51.5 ± 1 nM.

Molecule Clc1ccc(/C=C/c2ccc3ncccc3c2)cc1 [Compound 15, (E)-6-(4-Chlorostyryl)quinoline] has a Ki (Aβ1–40 aggregates) of 45 ± 1.3 nM.

Work on C(=C\c1ccc2[nH]ccc2c1)/c1ccccc1 [Compound 4, (E)-5-Styryl-1H-indole] yielded a melting point of 162 to 163 °C and a Ki (Aβ1–40 aggregates) of 25.1 ± 2.1 nM.

In the case of CN(C)c1ccc(-c2cn3cc([123I])ccc3n2)cc1 [[^123I]IMPY], the brain uptake ([3]; 2 min postinjection ref 16) is listed as 2.88 % ID/organ, the brain uptake ([3]; 60 min postinjection ref 16) is listed as 0.21 % ID/organ and the brain2min/brain60min ratio ([3]; from literature values ref 16) is listed as 13.7.

Molecule Cc1ccc(/C=C/c2ccc3ncccc3c2)cc1 [Compound 18, (E)-6-(4-Methylstyryl)quinoline] has a Ki (Aβ1–40 aggregates) of 288.4 ± 1.3 nM.

“(E)-5-(4-Methoxystyryl)-1H-indole [Compound 9]” gave a Ki (Aβ1–40 aggregates) of 15.8 ± 1.5 nM.

In the case of Ic1ccc(/C=C/c2ccc3[nH]ccc3c2)cc1 [Compound 8, (E)-5-(4-Iodostyryl)-1H-indole], the “Fluorescent staining of Aβ plaques” value (Aβ plaques) is reported as “specific binding to Aβplaques; also recorded: clearly stained Aβ plaques”, the melting point is reported as 211 to 212 °C and the Ki (Aβ1–40 aggregates) is reported as 4.1 ± 0.2 nM.

In the case of Brc1ccc(/C=C/c2ccc3ncccc3c2)cc1 [Compound 16, (E)-6-(4-Bromostyryl)quinoline], the Ki (Aβ1–40 aggregates) is reported as 23.5 ± 1.3 nM.
